Columns and labels:
[1] = molecular target: T1, Serine/threonine-protein kinase DCLK2 (Homo sapiens) (UniProt Q8N568); test: Selectivity interaction (KinomeScan (DiscoverX)) EUB0000229b DCLK2; conditions: at 10 µM
T1 sequence (whole entry): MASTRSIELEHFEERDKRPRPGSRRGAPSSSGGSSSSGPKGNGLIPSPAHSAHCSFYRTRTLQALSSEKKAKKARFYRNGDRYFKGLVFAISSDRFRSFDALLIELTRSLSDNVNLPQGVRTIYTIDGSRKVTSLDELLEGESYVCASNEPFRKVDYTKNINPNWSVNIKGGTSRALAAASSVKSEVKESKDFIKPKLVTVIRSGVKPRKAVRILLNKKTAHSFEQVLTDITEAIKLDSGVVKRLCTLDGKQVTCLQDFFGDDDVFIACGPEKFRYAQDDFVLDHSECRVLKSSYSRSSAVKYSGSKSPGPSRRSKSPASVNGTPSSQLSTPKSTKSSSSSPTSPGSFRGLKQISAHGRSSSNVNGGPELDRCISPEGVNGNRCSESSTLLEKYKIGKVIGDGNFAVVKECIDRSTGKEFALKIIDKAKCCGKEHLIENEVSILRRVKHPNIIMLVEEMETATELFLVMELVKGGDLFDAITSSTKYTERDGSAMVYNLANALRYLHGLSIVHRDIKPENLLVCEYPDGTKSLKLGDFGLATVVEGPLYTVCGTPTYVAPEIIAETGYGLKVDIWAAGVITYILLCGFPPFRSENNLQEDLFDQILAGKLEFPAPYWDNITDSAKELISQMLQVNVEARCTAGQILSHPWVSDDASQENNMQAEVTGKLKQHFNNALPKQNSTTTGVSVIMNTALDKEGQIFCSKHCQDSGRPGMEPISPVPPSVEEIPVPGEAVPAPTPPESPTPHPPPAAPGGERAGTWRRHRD

[2] = molecular target: T2, Serine/threonine-protein kinase Nek9 (Homo sapiens) (UniProt Q8TD19); test: Selectivity interaction (KinomeScan (DiscoverX)) EUB0001079a NEK9; conditions: at 1 µM
T2 sequence (whole entry): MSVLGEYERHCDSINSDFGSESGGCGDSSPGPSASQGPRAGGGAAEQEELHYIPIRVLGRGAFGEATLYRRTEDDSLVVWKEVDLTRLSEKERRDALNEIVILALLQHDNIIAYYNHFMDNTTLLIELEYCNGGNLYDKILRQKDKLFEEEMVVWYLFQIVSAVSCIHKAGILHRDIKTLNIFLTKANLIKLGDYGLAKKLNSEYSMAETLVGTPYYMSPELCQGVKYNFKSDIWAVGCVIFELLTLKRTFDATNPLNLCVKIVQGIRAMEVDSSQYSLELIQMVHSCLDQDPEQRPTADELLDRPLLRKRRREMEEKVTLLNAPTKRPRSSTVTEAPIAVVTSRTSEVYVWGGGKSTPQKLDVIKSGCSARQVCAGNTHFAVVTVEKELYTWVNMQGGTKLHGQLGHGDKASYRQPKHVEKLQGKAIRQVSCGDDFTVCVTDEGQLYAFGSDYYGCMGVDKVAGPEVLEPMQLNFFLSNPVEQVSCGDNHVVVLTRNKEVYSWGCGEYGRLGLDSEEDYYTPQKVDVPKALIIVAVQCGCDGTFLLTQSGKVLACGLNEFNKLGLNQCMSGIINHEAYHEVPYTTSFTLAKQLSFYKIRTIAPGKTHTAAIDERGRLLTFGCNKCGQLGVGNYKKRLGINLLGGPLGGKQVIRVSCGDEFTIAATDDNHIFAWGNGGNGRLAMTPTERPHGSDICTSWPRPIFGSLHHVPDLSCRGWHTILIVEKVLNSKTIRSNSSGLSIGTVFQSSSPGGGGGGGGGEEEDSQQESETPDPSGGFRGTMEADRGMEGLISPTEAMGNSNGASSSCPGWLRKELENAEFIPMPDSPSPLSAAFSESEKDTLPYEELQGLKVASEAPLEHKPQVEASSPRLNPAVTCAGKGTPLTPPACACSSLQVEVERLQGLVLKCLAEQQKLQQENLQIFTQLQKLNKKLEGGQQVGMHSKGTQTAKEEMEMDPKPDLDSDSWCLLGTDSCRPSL

[3] = molecular target: T3, Tyrosine-protein kinase ZAP-70 (Homo sapiens) (UniProt P43403); test: Selectivity interaction (KinomeScan (DiscoverX)) EUB0000666a ZAP70; conditions: at 10 µM
T3 sequence (whole entry): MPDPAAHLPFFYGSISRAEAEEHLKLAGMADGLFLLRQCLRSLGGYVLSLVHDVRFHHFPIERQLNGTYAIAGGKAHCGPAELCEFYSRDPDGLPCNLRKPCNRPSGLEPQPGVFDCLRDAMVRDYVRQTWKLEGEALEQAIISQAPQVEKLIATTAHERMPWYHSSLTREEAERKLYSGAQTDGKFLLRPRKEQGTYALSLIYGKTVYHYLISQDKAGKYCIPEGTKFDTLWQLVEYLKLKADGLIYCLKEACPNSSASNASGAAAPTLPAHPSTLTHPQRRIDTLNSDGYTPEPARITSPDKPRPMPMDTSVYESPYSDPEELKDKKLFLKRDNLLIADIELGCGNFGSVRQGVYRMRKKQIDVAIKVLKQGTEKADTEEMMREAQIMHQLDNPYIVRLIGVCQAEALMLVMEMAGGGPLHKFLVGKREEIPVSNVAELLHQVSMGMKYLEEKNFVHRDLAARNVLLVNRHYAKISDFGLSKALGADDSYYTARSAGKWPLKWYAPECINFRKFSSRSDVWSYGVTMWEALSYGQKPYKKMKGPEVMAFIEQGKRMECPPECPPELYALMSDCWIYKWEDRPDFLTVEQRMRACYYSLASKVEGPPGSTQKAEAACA

## COc1cc(N(C)c2ccnc3ccc(C(F)(F)F)cc23)cc(OC)c1OC
[1]
  % binding: 100%

## Nc1cnc(N2CCc3cc(S(=O)(=O)Nc4c(F)cc(Cl)cc4F)cc(N4CCCC4=O)c32)nc1 [TP-020n]
[2]
  % of control: 98%

## O=C(NOC[C@H](O)CO)c1ccc(F)c(F)c1Nc1ccc(I)cc1F
[3]
  % of control: 89%
